≈ marks a conversion by molar mass, not a printed value.
Key:
[1] = test system: Escherichia coli ATCC 25922; type: cell-based; settings: wild-type E. coli ATCC 25922; MHB pH 7.4, 5×10^5 CFU/mL, 37°C, 18–20 h
Method: All experiments were performed with Escherichia coli ATCC 25922. Stock cultures of the wild-type strain and lineage isolates were stored at –80°C in 4% (w/v) glycerol, 0.5% (w/v) glucose, 2% (w/v) skimmed milk powder and 3% (w/v) tryptone soy powder. Lineage populations were frozen at –80°C in 50% (w/v) glycerol. All experiments were performed at 37°C. Experiments were carried out in cation-adjusted Mueller Hinton II broth (MHB) (Becton Dickinson 212322) adjusted to pH 7.4 or in 1% (w/v) peptone (Becton Dickinson 211677) for MIC determination of natural AMPs. Brain Heart Infusion (BHI) (CM1135) with agar (VWR 20768.292) 1.5% as gelling agent was used throughout for colony plating.
MIC was determined by using the micro-dilution method according to guidelines of the Clinical and Laboratory Standards Institute. Peptidomimetic 1 and erythromycin 1∶2 serial dilutions were prepared from 1024 µg/mL stock solutions to give a final range of 512-0.5 µg/mL in the wells. Ampicillin 1∶2 serial dilutions were prepared from a 256 µg/mL stock solution to give a final range of 128-0.13 µg/mL in the wells. Polymyxin B and gentamicin 1∶2 serial dilutions were prepared from a 64 µg/mL stock solution to give a final range of 32-0.03 µg/mL in the wells. Also, 1∶2 serial dilutions of the AMPs KR-12, IsCTp, melittin and PEP-1-K were prepared from 64 µg/mL stock solutions to give a final range of 32-0.03 µg/mL in the wells; however this was performed in 1% peptone instead of in MHB since activity was drastically diminished in the latter (not shown).
The population lineages were tested for their susceptibility towards peptidomimetic 1, polymyxin B, gentamicin and ampicillin. Single-culture isolates selected from these populations were additionally tested against peptidomimetic 1, polymyxin B, erythromycin and the five reference AMPs. To estimate the level of cross-resistance to closely related peptidomimetics, MIC determinations were performed for peptidomimetics 2 and 3 (Figure 1) towards selected isolates. […]

[2] = test system: isolates from peptidomimetic 1-exposed E. coli ATCC 25922 lineages; settings: the three most resistant isolates from lineage no. 2
Method: Continuous selection of resistance was performed for peptidomimetic 1 (Figure 1) and for the clinically relevant natural antimicrobial peptide, polymyxin B. A bacterial suspension of a single colony of E. coli ATCC 25922 was re-inoculated (10 µl) five times in unsupplemented MHB (990 µl). It was then re-inoculated in MHB supplemented with peptidomimetic 1 (ten lineages) or polymyxin B (ten lineages), and after ten re-inoculations at constant peptidomimetic or polymyxin B concentration, the concentrations were doubled. […] Four lineages grown in MHB with MilliQ water were included as control. Re-inoculations were performed twice a day, but were reduced to once a day when growth was slower as assessed by turbidity of the cultures. The total number of passages (supplemented with peptidomimetic/AMP) was 77 times equivalent to approx. 500 generations. For each increase in concentration the lineages were preserved as freezing stocks. Ten colony isolates were randomly selected from each lineage population at 32×MIC and preserved as freezing stocks.
MIC was determined by using the micro-dilution method according to guidelines of the Clinical and Laboratory Standards Institute. Peptidomimetic 1 and erythromycin 1∶2 serial dilutions were prepared from 1024 µg/mL stock solutions to give a final range of 512-0.5 µg/mL in the wells. Ampicillin 1∶2 serial dilutions were prepared from a 256 µg/mL stock solution to give a final range of 128-0.13 µg/mL in the wells. Polymyxin B and gentamicin 1∶2 serial dilutions were prepared from a 64 µg/mL stock solution to give a final range of 32-0.03 µg/mL in the wells.
The population lineages were tested for their susceptibility towards peptidomimetic 1, polymyxin B, gentamicin and ampicillin. Single-culture isolates selected from these populations were additionally tested against peptidomimetic 1, polymyxin B, erythromycin and the five reference AMPs. To estimate the level of cross-resistance to closely related peptidomimetics, MIC determinations were performed for peptidomimetics 2 and 3 (Figure 1) towards selected isolates. The bacterial suspensions were grown overnight in MHB at 37°C for determination of the population MIC, or individual isolates were grown overnight on non-selective BHI agar at 37°C. […] In all experiments, bacterial cells were suspended in 0.9% saline to give a turbidity of 0.13 at OD546 (approximately 1×10^8 CFU/mL) and diluted in MHB pH 7.4 to a final concentration of 5×10^5 CFU/mL in each well. Polypropylene plates (Nunc 442587) were used to minimize peptide binding, and the incubation time was 18–20 hours at 37°C. […] MIC was found in a minimum of two technical (population MIC) or biological (isolate MIC) replicates as the lowest concentration of the AMP or antibiotic where no visible growth was observed.

## CC(=O)N[C@@H](CCCCNC(=N)N)C(=O)N(CCC(=O)N[C@@H](CCCCNC(=N)N)C(=O)N(CCC(=O)N[C@@H](CCCCNC(=N)N)C(=O)N(CCC(=O)N[C@@H](CCCCNC(=N)N)C(=O)N(CCC(=O)N[C@@H](CCCCNC(=N)N)C(=O)N(CCC(=O)N[C@@H](CCCCNC(=N)N)C(=O)N(CCC(N)=O)Cc1ccccc1)Cc1ccccc1)Cc1ccccc1)Cc1ccccc1)Cc1ccccc1)Cc1ccccc1 [peptidomimetic 3]
[1]
  wt MIC: 4 µg/mL
[2]
  MIC: 32 µg/mL (≈ 15.6 µM)
  MIC levels higher than seen for the wild type strain: 8 times

Reference: PMC3764026, “Adaptive Evolution of Escherichia coli to an α-Peptide/β-Peptoid Peptidomimetic Induces Stable Resistance” (PLoS ONE, 2013)
